Reference: US20110008396A1, “COMPOSITIONS AND METHODS FOR TREATING CARDIOVASCULAR CONDITIONS” (Rutgers, the Sate University of New Jersey, priority 2007, published 2011)
“Also recorded” adds a separate entry of the source.

What was measured:
[1] = tested on: THP-1 macrophages; experiment: hoxLDL efflux from macrophage cells; type: cell-based, human; conditions: GW3965 10^-8 M, NAPs 10^-6 M
Procedure: THP-1, human monocytes, are grown in suspension, with RPMI medium containing 0.4 mM Ca^2+ and Mg^2+, (ATCC) and supplemented with 10% FBS, in an incubator with 5% CO2 at 37 C and split every four days through centrifugation. The cells are seeded at a concentration of 100,000 cells/cm^2 to continue monocyte cultures and to differentiate the cells into macrophage cells. Once the monocytes have been differentiated into macrophage cells they will become adherent and can be tested. The macrophage cells can not be propagated and will be used within a week of differentiation.
Highly oxidized LDL will be oxidized within five days of each experiment. BODIPY-labeled and unlabeled human plasma derived LDL (Molecular Probes, OR) is oxidized by 18 hours of incubation with 10 uM CuSO4 (Sigma) at 37 C with 5% CO2. (Oorni 1997; Chang 2001) The oxidation will be stopped with 0.01% w/v EDTA after the 18 hours.
The efflux of hoxLDL by macrophage cells was assayed by incubating fluorescently labeled hoxLDL (10 ug/mL) with cells for 2 hours at 37 C and 5% CO2. […] The images were analyzed with Image Pro Plus 5.1 software (Media Cybernetics, San Diego, Calif.) and normalized with cell number and compared to the control sample wherein no NAPs or ligand was administered.

[2] = tested on: THP-1 macrophages; experiment: Efflux of high density lipoproteins (HDL secretion); type: cell-based, human; conditions: macrophages pre-loaded with hoxLDL 30 μg/ml, ApoA1 present
Procedure: In brief, differentiated THP-1 macrophages were pre-incubated with 30 μg/ml highly oxidized LDL at 37° C. in serum-free RPMI 1640 for 24 hr. Next, NAPs at 10^−6 M and 10 ug/mL ApoA1 with or without 10^−7 M GW3965 were added to each well and incubated for a further 24 hours. The cell medium was then removed for analysis using the Biovision HDL and LDL/VLDL Cholesterol Quantification kit (BioVision, CA). The remaining macrophages were lysed using 0.03 g sodium dodecyl sulfate (SDS) in 30 ml sodium hydroxide (NaOH, 0.1N). The protein content was measured with the Modified Lowry protein assay (Pierce, Ill.) and the HDL secretion results were normalized per mg cell protein.

[3] = tested on: THP-1 macrophages; experiment: GW internalization study (multiphoton imaging); type: cell-based, human; conditions: 5 hr, polymer 10^-6 M
Procedure: In brief, differentiated THP-1 macrophages were incubated with NAPs at 10^−6 M and/or 10^−7M GW3965 for 5 hr in serum-free RPMI at 37° C. Cells were washed and fixed and multiphoton imaging to detect internalized GW3965 was performed on a Leica TCS SP2 system (Leica Microsystems, Inc., Exton, Pa.). The cells were illuminated using a titanium: sapphire femtosecond laser with a tunable wavelength from 780 nm to 920 nm (Mai Tai, repetition rate 80 Mhz, 100 fs pulse duration, 800 mW) and 470-500 nm emission.

[4] = tested on: LXRalpha; conditions: GW3965 at concentrations as high as 1*10^-6 M; cited from earlier work
[5] = tested on: ABCA1; conditions: GW3965 at concentrations as high as 1*10^-6 M; cited from earlier work

O=C(O)Cc1cccc(OCCCN(Cc2cccc(C(F)(F)F)c2Cl)CC(c2ccccc2)c2ccccc2)c1 [GW3965]
hoxLDL efflux (in words) ([1]; 5 hours): not effective | less hoxLDL within the cells / cholesterol released (efflux) versus nothing administered ([1]; hoxLDL 10 ug/mL 2 h, then test condition 5 h): 4% | HDL secreted versus 100 percent baseline (in words) [2]: not significantly different | internalization of GW3965 by macrophages (multiphoton images, in words) [3]: minimal uptake; also recorded: no drug uptake | LXRalpha increase in HepG2 cells [4]: ≤ 3 fold | ABCA1 increase in HepG2 cells [5]: ≤ 6 fold
